The values below are quoted from earlier work in patent US20220304980A1, “METERED DOSING COMPOSITIONS AND METHODS OF USE OF P[…]” (SW Holdings, Inc, priority 2019, published 2022).

The subject of data set [1] is rat veins. Conditions: cited from earlier work.
The target of data set [2] is 5-HT2A receptor (Homo sapiens, UniProt P28223). The note with it: selective 5-HT2A antagonists; cited from earlier work.
Chain of 5-HT2A receptor (P28223 whole entry): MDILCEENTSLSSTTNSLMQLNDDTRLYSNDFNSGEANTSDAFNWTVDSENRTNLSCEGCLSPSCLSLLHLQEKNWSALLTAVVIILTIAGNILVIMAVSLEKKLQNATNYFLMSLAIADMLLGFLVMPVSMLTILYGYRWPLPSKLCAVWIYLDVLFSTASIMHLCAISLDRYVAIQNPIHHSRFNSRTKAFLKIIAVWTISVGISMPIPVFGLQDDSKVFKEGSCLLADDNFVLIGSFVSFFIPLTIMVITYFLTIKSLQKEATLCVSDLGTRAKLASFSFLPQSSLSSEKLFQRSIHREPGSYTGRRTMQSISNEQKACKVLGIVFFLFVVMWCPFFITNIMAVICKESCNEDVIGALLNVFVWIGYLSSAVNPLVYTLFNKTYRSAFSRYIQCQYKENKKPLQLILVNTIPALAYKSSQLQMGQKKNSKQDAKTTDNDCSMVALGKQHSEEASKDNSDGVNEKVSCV

Turning to `COc1cc(CC(C)N)c(OC)cc1I` (centres unmarked) [DOI], the “effect on rat veins” value in data set [1] (5-HT2A agonist) is “constricts rat veins”.

For `O=CN1CCC(C(=O)NCCN2CCC(=C3c4ccccc4C=Cc4ccccc43)CC2)CC1` [AT-1015], the vascular effect result in data set [2] was “vasodilating properties”.

With `O=C(c1ccc(F)cc1)C1CCN(CCn2c(=O)[nH]c3ccccc3c2=O)CC1` [ketanserin], in data set [1] (5-HT2A antagonist), the “effect on DOI-induced constriction of rat veins” value is given as “blocked”. Further, in data set [2], the vascular effect result is reported as “vasodilating properties”.

For `COc1cccc(CCc2ccccc2OCC(CN(C)C)OC(=O)CCC(=O)O)c1` (centres unmarked) [sarpogrelate], the vascular effect entry in data set [2] is reported as “vasodilating properties”.
